Measurements reported in patent publication US11116771B2, “G protein-coupled receptor (GPCR) modulation by imipridones” (Oncoceutics, Inc., priority 2016, dated 2021).
Converted amounts (≈) assume the structure as drawn. Where two headings read alike, the source gives them in different places.

Assays:
MV411 AML cells = assay: Cell viability, MV411 AML cells; assay type: cell-based
HL60 = assay: Cell viability, HL60 AML cell line; assay type: cell-based; details: Homo sapiens, HL-60, 72 h
MOLM14 AML cells = assay: Cell viability, MOLM14 AML cells; assay type: cell-based; details: ONC212 at 250 nM, viability determined at 96 h (FIG. 29C)
HCT116 cells = assay: Anticancer efficacy in HCT116 cells; assay type: cell-based, human
[1] = tested on: MRC5 lung fibroblasts and Hs27a bone marrow cells; assay: Cell viability of normal cells treated with ONC212; assay type: cell-based; details: 5 nM-5 μM, 72 h (FIG. 29B)
leukemia cell lines = assay: Anti-cancer efficacy in leukemia cell lines; assay type: cell-based; details: 55 leukemia cell lines regardless of subtype (FIG. 26)
[2] = tested on: NCI60 cancer cell line panel; assay: NCI60 cancer cell line panel; assay type: cell-based; details: NCI60 panel (FIG. 16)
[3] = tested on: human colon cancer xenograft; assay: Human colon cancer xenograft in mice; assay type: in vivo; details: single dose, oral or intraperitoneal (FIG. 24)
MV411 AML xenograft = MV411 AML xenograft model; assay type: in vivo, athymic nude mice
[4] = Rat non-GLP oral single dose study; assay type: in vivo; details: rat, in vivo, po
[5] = Mouse tolerability (non-GLP oral single dose / MTD study); assay type: in vivo
Experimental: ONC212 25 mg/kg represents NOAEL in mouse and rat non-GLP oral single dose studies which is also the efficacious dose in mouse xenograft studies. […].
Dual targeting of DRD2/3 and GPR132/91 represents a novel strategy for anti-cancer efficacy without toxicity. […] […]. […] […].

[6] = tested on: DRD2 (short and long isoforms); assay: β-arrestin recruitment GPCR reporter assay, DRD2; assay type: cell-based
GPR132 = biological target: T1, GPR132 (Homo sapiens, UniProt Q9UNW8); assay: β-arrestin recruitment GPCR reporter assay, GPR132; assay type: cell-based
T1 sequence (Q9UNW8 1-380): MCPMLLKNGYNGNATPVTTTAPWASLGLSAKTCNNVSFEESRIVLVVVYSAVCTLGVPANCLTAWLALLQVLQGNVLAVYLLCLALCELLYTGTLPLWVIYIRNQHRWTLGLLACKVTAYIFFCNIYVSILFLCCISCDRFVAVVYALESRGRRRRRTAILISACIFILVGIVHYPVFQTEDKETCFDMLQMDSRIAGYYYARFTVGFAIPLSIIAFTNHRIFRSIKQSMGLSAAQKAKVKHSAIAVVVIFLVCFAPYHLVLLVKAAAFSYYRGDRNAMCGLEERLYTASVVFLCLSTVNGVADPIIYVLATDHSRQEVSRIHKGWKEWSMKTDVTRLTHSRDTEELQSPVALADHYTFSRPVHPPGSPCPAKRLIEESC

[7] = tested on: Staphylococcus aureus ATCC 29213; assay: MIC by micro-broth dilution, S. aureus ATCC 29213; assay type: cell-based; details: ATCC29213
[8] = tested on: Staphylococcus aureus ATCC 33591; assay: MIC by micro-broth dilution, S. aureus ATCC 33591; assay type: cell-based; details: ATCC33591
[9] = tested on: Staphylococcus aureus ATCC 700699; assay: MIC by micro-broth dilution, S. aureus ATCC 700699; assay type: cell-based; details: Staphylococcus aureus, ATCC700699, ATCC 700699 (48 hours)
[10] = tested on: human fetal lung fibroblast (MRC-5) cells; details: MRC5; nanomolar concentrations (FIG. 22)

Question: For `O=C1C2=C(CCN(Cc3ccccc3)C2)N2CCN=C2N1Cc1ccc(C(F)(F)F)cc1` [ONC212], which “fold more potent compared to ONC201” value (MV411 AML cells; AML cell lines in vitro (Table 11)) is on record?
Answer: The value was “up to 400 fold”.

Question: And the “efficacy in AML cells resistant to standard of care cytarabine” value (MV411 AML cells; MV411, 5 nM-5 μM, 24 h (FIG. 29A))?
Answer: The value was “efficacious”.

Question: And the “cell viability after 8 hr exposure” value (MV411 AML cells; MV411, ONC212 at 250 nM, viability determined at 96 h (FIG. 29C))?
Answer: Its value is “robust reduction in cell viability”.

Question: What about the IC50 (HL60) of the same compound?
Answer: The IC50 was 0.21 µM.

Question: And the “cell viability after 8 hr exposure” value (MOLM14 AML cells)?
Answer: The value was “robust reduction in cell viability”.

Question: What about the “cell death in cancer cells” value (HCT116 cells; HCT116, nanomolar concentrations (FIG. 22)) of the same compound?
Answer: Its value is “induced cell death”.

Question: And the IC50 (HCT116 cells; Homo sapiens, HCT-116, HCT116 cells)?
Answer: The IC50 was 0.01 µM.

Question: What about the “toxicity to normal cells” value [1] of the same compound?
Answer: The value was “non-toxic to normal cells at efficacious concentrations”.

Question: What about the anti-cancer efficacy (leukemia cell lines) of the same compound?
Answer: The anti-cancer efficacy was “nanomolar range”.

Question: And the “anti-cancer efficacy across tumor types” value [2]?
Answer: Its value is “demonstrated anti-cancer efficacy”.

Question: And the “tumor volume compared to vehicle-treated control” value [3]?
Answer: Its value is “significant reduction of tumor volume”.

Question: What about the “body weight loss or gross observations” value (MV411 AML xenograft; all ONC212 regimens (FIG. 30C)) of the same compound?
Answer: Its value is “None of these ONC212 administration regimens were associated with body weight loss”.

Question: What about the “leukemia xenograft tumor growth” value (MV411 AML xenograft; biweekly dosing with 25 mg/kg, oral (FIG. 30B)) of the same compound?
Answer: The value was “not efficacious”.

Question: What about the “leukemia xenograft tumor growth” value (MV411 AML xenograft; oral weekly administration, ONC212 50 mg/kg, ONC201 at similar doses (FIG. 30A)) of the same compound?
Answer: Its value is “significantly reduced”.

Question: And the “leukemia xenograft tumor growth” value (MV411 AML xenograft; weekly/biweekly dosing with 5 mg/kg, oral (FIG. 30B))?
Answer: Its value is “not efficacious”.

Question: And the NOAEL [4]?
Answer: Its NOAEL is 25 mg/kg.

Question: What about the NOAEL ([5]; in vivo, mouse, non-GLP oral single dose study / MTD study) of the same compound?
Answer: The NOAEL was 25 mg/kg.

Question: And the well tolerated dose ([5]; mice)?
Answer: The well tolerated dose was at least 225 mg/kg.

Question: And the “GPCR activity, DRD2” value [6]?
Answer: The value was “does not engage DRD2”.

Question: What about the “GPCR activity, GPR132” value (GPR132) of the same compound?
Answer: The value was “highly selective agonist”.

Question: And the MIC ([7]; wild type Staphylococcus aureus (ATCC 29213), read-out: MIC)?
Answer: The MIC was 3.13 µg/mL (≈ 7.11 µM).

Question: What about the MIC90 ([7]; Staphylococcus aureus, ATCC 29213, 24 hours, read-out: MIC90) of the same compound?
Answer: Its MIC90 is 3.13 µg/mL (≈ 7.11 µM).

Question: And the MIC ([7]; Staphylococcus aureus, ATCC 29213, 24 hours, read-out: MIC95)?
Answer: The MIC was 3.13 µg/mL (≈ 7.11 µM).

Question: What about the MIC99 ([7]; Staphylococcus aureus, ATCC 29213, 24 hours, read-out: MIC99) of the same compound?
Answer: The MIC99 was 3.13 µg/mL (≈ 7.11 µM).

Question: And the MIC ([7]; Staphylococcus aureus, ATCC 29213, 24 hours, read-out: MIC, Visual)?
Answer: Its MIC is 3.12 µg/mL (≈ 7.09 µM).

Question: And the MIC ([8]; Staphylococcus aureus (ATCC 33591), methicillin resistant, read-out: MIC)?
Answer: Its MIC is 3.13 µg/mL (≈ 7.11 µM).

Question: And the MIC90 ([8]; Staphylococcus aureus, ATCC 33591, 24 hours, read-out: MIC90)?
Answer: Its MIC90 is 3.13 µg/mL (≈ 7.11 µM).

Question: And the MIC ([8]; Staphylococcus aureus, ATCC 33591, 24 hours, read-out: MIC95)?
Answer: Its MIC is 6.25 µg/mL (≈ 14.2 µM).

Question: And the MIC99 ([8]; Staphylococcus aureus, ATCC 33591, 24 hours, read-out: MIC99)?
Answer: Its MIC99 is 100 µg/mL (≈ 227 µM).

Question: And the MIC ([8]; Staphylococcus aureus, ATCC 33591, 24 hours, read-out: MIC, Visual)?
Answer: Its MIC is 3.12 µg/mL (≈ 7.09 µM).

Question: And the MIC90 ([9]; read-out: MIC90)?
Answer: The MIC90 was 6.25 µg/mL (≈ 14.2 µM).

Question: And the MIC ([9]; read-out: MIC95)?
Answer: Its MIC is 12.5 µg/mL (≈ 28.4 µM).

Question: And the MIC99 ([9]; read-out: MIC99)?
Answer: Its MIC99 is 12.5 µg/mL (≈ 28.4 µM).

Question: And the MIC ([9]; read-out: MIC, Visual)?
Answer: The MIC was 12.5 µg/mL (≈ 28.4 µM).

Question: What about the “cell death in normal cells” value [10] of the same compound?
Answer: Its value is “not normal cells”.
